Eff. % and logP data for 4 molecules are collected here from patent publication US9249104B2, “Pyrazole indanyl carboxamides” (BAYER CROPSCIENCE AG, priority 2012, dated 2016).

One series concerns Puccinia recondita. In words: In vivo preventive test on Puccinia recondita (brown rust on wheat). The settings on record: 500 ppm, wheat plants sprayed 24 h before contamination, graded 12 days after contamination. A digest of the protocol: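 Wheat plants (cv. Scipion) at the 1-leaf stage were sprayed with compound, then inoculated 24 h later with P. recondita spores (100 000 spores/ml). Percent efficacy was graded 12 days after inoculation relative to solvent-treated controls.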

The next series has as its system Septoria tritici. In words: In vivo preventive test on Septoria tritici (leaf spot on wheat). Particulars: 500 ppm, wheat plants sprayed 24 h before contamination, graded 24 days after contamination. As to the method: Wheat plants (“Scipion” variety), sown in starter cups on a 50/50 peat soil-pozzolana substrate and grown at 22° C., are treated at the 1-leaf stage (10 cm height) by spraying with the active ingredient prepared as described above. Plants, used as controls, are treated with the mixture of acetone/tween/DMSO/water not containing the active material. After 24 hours, the plants are contaminated by spraying the leaves with an aqueous suspension of cryopreserved Septoria tritici spores (500 000 spores per ml). The contaminated wheat plants are incubated for 72 hours at 18° C. and at 100% relative humidity, and then for 21 days at 90% relative humidity. Grading (% of efficacy) is carried out 24 days after the contamination, in comparison with the control plants.

For another series, the system named is Uromyces appendiculatus. In words: In vivo preventive test on Uromyces appendiculatus (bean rust). The settings on record: preventive, bean plants, dose of 500 ppm, grading 11 days after contamination. A digest of the protocol:
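Saxa bean plants at the 2-leaf stage, grown at 24 °C, were sprayed with compound and inoculated 24 h later with Uromyces appendiculatus spores (150 000 spores per ml). Efficacy (%) was scored 11 days after inoculation relative to solvent-treated control plants.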

For series [1], the system named is Fusarium nivale (var. majus). In words: In vivo Fusarium nivale (var. majus) test (wheat)/preventive. The settings on record: 500 ppm, wheat plants, preventive, evaluated 5 days after inoculation. How it is done: • Solvent: 49 parts by weight of N,N-dimethylacetamide • Emulsifier: 1 part by weight of alkylaryl polyglycol ether To produce a suitable preparation of active compound, 1 part by weight of active compound or active compound combination is mixed with the stated amounts of solvent and emulsifier, and the concentrate is diluted with water to the desired concentration. To test for preventive activity, young plants are sprayed with the preparation of active compound or active compound combination at the stated rate of application. After the spray coating has been dried, the plants are slightly injured by using a sandblast and afterwards they are sprayed with a conidia suspension of Fusarium nivale (var. majus). The plants are placed in the greenhouse under a translucent incubation cabinet at a temperature of approximately 10° C. and a relative atmospheric humidity of approximately 100%.

The subject of another series is Alternaria brassicae. In words: In vivo preventive test on Alternaria brassicae (leaf spot on radish). The settings on record: 500 ppm, radish plants sprayed 24 h before contamination, graded 6 days after contamination. As to the method:
Radish plants (“Pernod Clair” variety), sown in starter cups on a 50/50 peat soil-pozzolana substrate and grown at 17° C., are treated at the cotyledon stage by spraying with the active ingredient prepared as described above. Plants, used as controls, are treated with the mixture of acetone/tween/DMSO/water not containing the active material. After 24 hours, the plants are contaminated by spraying the cotyledons with an aqueous suspension of Alternaria brassicae spores (50 000 spores per ml). The spores are collected from a 15-day-old culture. The contaminated radish plants are incubated at 20° C. and at 100% relative humidity. Grading (% of efficacy) is carried out 6 days after the contamination, in comparison with the control plants.

A further series concerns Botrytis cinerea. Kind of series: In vivo preventive test on Botrytis cinerea (grey mould). Particulars: 500 ppm, gherkin plants sprayed 24 h before contamination, graded 4 to 5 days after contamination. As to the method:
Gherkin plants (“Vert petit de Paris” variety), sown in starter cups on a 50/50 peat soil-pozzolana substrate and grown at 24° C., are treated at the Z11 cotyledon stage by spraying with the active ingredient prepared as described above. Plants, used as controls, are treated with the mixture of acetone/tween/DMSO/water not containing the active material. After 24 hours, the plants are contaminated by spraying the cotyledons with an aqueous suspension of cryopreserved Botrytis cinerea spores (50 000 spores per ml). The spores are suspended in a nutrient solution composed of 10 g/L of PDB, 50 g/L of D-Fructose, 2 g/L of NH4NO3 and 1 g/L of KH2PO4. The contaminated gherkin plants are incubated at 17° C. and at 90% relative humidity.

A further series concerns Pyrenophora teres. Kind of series: In vivo preventive test on Pyrenophora teres (net blotch on barley). Particulars: 500 ppm, barley plants sprayed 24 h before contamination, graded 14 days after contamination. As to the method: Barley plants (“Plaisant” variety), sown in starter cups on a 50/50 peat soil-pozzolana substrate and grown at 22° C., are treated at the 1-leaf stage (10 cm height) by spraying with the active ingredient prepared as described above. Plants, used as controls, are treated with the mixture of acetone/tween/DMSO/water not containing the active material. After 24 hours, the plants are contaminated by spraying the leaves with an aqueous suspension of Pyrenophora teres spores (12 000 spores per ml). The spores are collected from a 12-day-old culture. […] Grading (% of efficacy) is carried out 14 days after the contamination, in comparison with the control plants.

In a further series the test system is Sphaerotheca fuliginea. Kind of series: In vivo preventive test on Sphaerotheca fuliginea (powdery mildew on cucurbits). The settings on record: 500 ppm, gherkin plants sprayed 24 h before contamination, graded 12 days after contamination. The gist of the method:
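Preventive spray of gherkin plants at Z11 cotyledon stage, grown at 24° C; inoculation 24 hours later with Sphaerotheca fuliginea spores (100 000 spores per ml). Efficacy graded 12 days post-inoculation as % versus solvent-treated control plants.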

For another series, the system named is Phakopsora pachyrhizi. Kind of series: In vivo Phakopsora test (soybeans)/preventive. Particulars: 10 ppm, soybean plants, preventive, evaluated 7 days after inoculation. As to the method: To produce a suitable preparation of active compound, 1 part by weight of active compound is mixed with the stated amounts of solvent and emulsifier, and the concentrate is diluted with water to the desired concentration. To test for preventive activity, young plants are sprayed with the preparation of active compound at the stated rate of application. After the spray coating has dried on, the plants are inoculated with an aqueous spore suspension of the causal agent of soybean rust (Phakopsora pachyrhizi) and stay for 24 h without light in an incubation cabinet at approximately 24° C. and a relative atmospheric humidity of 95%. The plants remain in the incubation cabinet at approximately 24° C. and a relative atmospheric humidity of approximately 80% and a day/night interval of 12 h.

Series [2] can be described thus: logP by HPLC on reversed phase columns (EEC directive 79/831 Annex V.A8). The format is physicochemical. Particulars: method [a]: LC-MS at pH 2.7, 0.1% formic acid in water / acetonitrile; compounds of formula (I), Table 1.
The next series relates to Phytophthora infestans. The format is in vivo. The settings on record: 500 ppm, tomato plants sprayed 24 h before contamination, graded 5 days after contamination.

Turning to `CC(C)OC1Cc2cccc(NC(=O)c3cn(C)nc3C(F)F)c2C1` (stereo not shown) [Example 2], the Eff. % with Puccinia recondita was determined as 100%; in the series on Septoria tritici, 90%; in the series with Uromyces appendiculatus, 100%; in series [1], 75%.

With `CC1c2c(NC(=O)c3cn(C)nc3C(F)F)cccc2C(C)(C)C1C` (stereo not shown) [Example 9], the Eff. % is listed as 94% in the series on Alternaria brassicae; 100% in the series with Botrytis cinerea; 97% in the series with Pyrenophora teres; 100% with Puccinia recondita; 90% in the series with Septoria tritici; 100% with Sphaerotheca fuliginea. In addition, the values for the Eff. % with Uromyces appendiculatus and with Phakopsora pachyrhizi were 100% and 84%, respectively.

`CC1Cc2c(NC(=O)c3cn(C)nc3C(F)F)cccc2C1(C)C` (stereo not shown) [Example 6]: the logP in series [2] is 3.55[a]. Moreover, the Eff. % in the series on Botrytis cinerea is 95%; in the series on Puccinia recondita, 100%; in the series on Septoria tritici, 95%; with Sphaerotheca fuliginea, 100%; in the series on Uromyces appendiculatus it was 98%; in the series with Phakopsora pachyrhizi, 96%.

Take `CC1c2cccc(NC(=O)c3cn(C)nc3C(F)F)c2CC1(C)C` (stereo not shown) [Example 5]: the Eff. % in the series with Alternaria brassicae turned out to be 71%; with Botrytis cinerea, 88%; in the series on Phytophthora infestans, 89%; in the series with Puccinia recondita it was 100%; in the series with Septoria tritici it was 91%; in the series on Sphaerotheca fuliginea, 98%.
